Experimental data published in patent US8574563B2 (Bristol-Myers Squibb Company, priority 2006, dated 2013).

Tested on: HCV 1b-377-neo replicon cells
Assay: HCV replicon assay, HCV 1b-377-neo replicon cells (1b FRET)
Format: cell-based, Hepatitis C virus genotype 1b
Details: HCV 1b-377-neo replicon cells; HCV 1b genotype
In short: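 Compounds tested in HCV genotype 1b-377-neo replicon cells with a FRET read-out. Cells resistant to a reference NS5A inhibitor through a Y2065H NS5A mutation were run alongside wild-type cells.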

`COC(=O)N[C@H](C(=O)N1CCC[C@H]1c1ncc(-c2ccc(-c3ccc(-c4cnc([C@@H]5CCCN5C(=O)[C@@H](NC(=O)OC)C5CC5)[nH]4)cc3C(=O)O)cc2)[nH]1)C1CC1` [Example M116, 4,4′-bis(2-((2S)-1-((2S)-2-cyclopropyl-2-((methoxycarbonyl)amino)acetyl)-2-pyrrolidinyl)-1H-imidazol-5-yl)-2-biphenylcarboxylic acid] was tested, and the “EC50 range against HCV 1b (Table 2, Range)” value was “>A”.

Same assay, conditions: Hepatitis C virus, HCV 1b-377-neo replicon cells; HCV 1b genotype; read-out: EC50 range against HCV 1b (Table 2, Range)

`COC(=O)N[C@@H](Cc1cn(Cc2ccccc2)cn1)C(=O)N1CCC[C@H]1c1ncc(-c2ccc(-c3ccc(-c4cnc([C@@H]5CCCN5C(=O)[C@@H](NC(=O)OC)C(C)C)[nH]4)cc3)cc2)[nH]1` [cj-76, methyl ((1S)-1-(((2S)-2-(5-(4′-(2-((2S)-1-((2S)-3-(1-benzyl-1H-imidazol-4-yl)-2-((methoxycarbonyl)amino)propanoyl)-2-pyrrolidinyl)-1H-imidazol-5-yl)-4-biphenylyl)-1H-imidazol-2-yl)-1-pyrrolidinyl)carbonyl)-2-methylpropyl)carbamate] and `COC(=O)N[C@H](C(=O)N1CCC[C@H]1c1ncc(-c2ccc(-c3ccc(-c4cnc([C@@H]5CCCN5C(=O)[C@H]5CC[C@@H](NC(=O)OC)CC5)[nH]4)cc3)cc2)[nH]1)C(C)C` [cj-69, methyl ((1S)-1-(((2S)-2-(5-(4′-(2-((2S)-1-((cis-4-((methoxycarbonyl)amino)cyclohexyl)carbonyl)-2-pyrrolidinyl)-1H-imidazol-5-yl)-4-biphenylyl)-1H-imidazol-2-yl)-1-pyrrolidinyl)carbonyl)-2-methylpropyl)carbamate] fall in the same range of EC50: 1 to 999 pM for the first, 1 to 999 pM for the second.

`CCCc1[nH]c([C@@H]2CCCN2C(=O)[C@@H](NC(=O)OC)C(C)C)nc1-c1ccc(-c2ccc(-c3cnc([C@@H]4CCCN4C(=O)[C@@H](NC(=O)OC)C(C)C)[nH]3)cc2)cc1` [Example J14c.2, methyl ((1S)-1-(((2S)-2-(4-(4′-(2-((2S)-1-((2S)-2-((methoxycarbonyl)amino)-3-methylbutanoyl)-2-pyrrolidinyl)-1H-imidazol-4-yl)-4-biphenylyl)-5-propyl-1H-imidazol-2-yl)-1-pyrrolidinyl)carbonyl)-2-methylpropyl)carbamate] and `COC(=O)N[C@H](C(=O)N1CCC[C@H]1c1ncc(-c2ccc(-c3ccc(-c4cnc([C@@H]5CCCN5C(=O)CN(C(C)C)C(C)C)[nH]4)cc3)cc2)[nH]1)C(C)C` [LS26, methyl ((1S)-1-(((2S)-2-(5-(4′-(2-((2S)-1-(N,N-diisopropylglycyl)-2-pyrrolidinyl)-1H-imidazol-5-yl)-4-biphenylyl)-1H-imidazol-2-yl)-1-pyrrolidinyl)carbonyl)-2-methylpropyl)carbamate] fall in the same range of EC50: 1 to 999 pM for the first, 1 to 999 pM for the second.

`O=C([C@@H]1CCCO1)N1CCC[C@H]1c1ncc(-c2ccc(-c3ccc(-c4cnc([C@@H]5CCCN5C(=O)[C@@H](c5ccccc5)N5CCCC5)[nH]4)cc3)cc2)[nH]1` [Example 95, 2-((2S)-1-((2R)-2-phenyl-2-(1-pyrrolidinyl)acetyl)-2-pyrrolidinyl)-5-(4′-(2-((2S)-1-((2S)-tetrahydro-2-furanylcarbonyl)-2-pyrrolidinyl)-1H-imidazol-5-yl)-4-biphenylyl)-1H-imidazole] and `CC(=O)OC(C(=O)N1CCC[C@H]1c1ncc(-c2ccc(-c3ccc(-c4cnc([C@@H]5CCCN5C(=O)[C@@H](c5ccccc5)N5CCCCC5)[nH]4)cc3)cc2)[nH]1)c1ccccc1` (stereo in doubt) [Example 107-21, (1R)-2-oxo-1-phenyl-2-((2S)-2-(5-(4′-(2-((2S)-1-((2R)-2-phenyl-2-(1-piperidinyl)acetyl)-2-pyrrolidinyl)-1H-imidazol-5-yl)-4-biphenylyl)-1H-imidazol-2-yl)-1-pyrrolidinyl)ethyl acetate] fall in the same range of EC50: 1 to 999 pM for the first, 1 to 999 pM for the second.

Compared with `O=C(NC1CCCC1)N[C@@H](C(=O)N1C[C@H](O)C[C@H]1c1ncc(-c2ccc(-c3ccc(-c4cnc([C@@H]5C[C@@H](O)CN5C(=O)[C@H](NC(=O)NC5CCCC5)c5ccccc5)[nH]4)cc3)cc2)[nH]1)c1ccccc1` [Example 24-15, N′,N′′′-(4,4′-biphenyldiylbis(1H-imidazole-5,2-diyl((2S,4R)-4-hydroxy-2,1-pyrrolidinediyl)((1R)-2-oxo-1-phenyl-2,1-ethanediyl)))bis(1-cyclopentylurea)], `O=CN[C@@H](C(=O)N1CCC[C@H]1c1ncc(-c2ccc(-c3ccc(-c4cnc([C@@H]5CCCN5C(=O)[C@H](NC=O)c5ccccc5)[nH]4)cc3)cc2)[nH]1)c1ccccc1` [Example 23, N,N′-(4,4′-biphenyldiylbis(1H-imidazole-5,2-diyl(2S)-2,1-pyrrolidinediyl((1R)-2-oxo-1-phenyl-2,1-ethanediyl)))diformamide] is lower in EC50: 1000 to 99000 pM for the first, 1 to 999 pM for the second.

`CN(C)C(C(=O)N1CCC[C@H]1c1nc(-c2ccc(-c3ccc(-c4cnc([C@@H]5CC6CCCCC6N5C(=O)[C@@H](c5ccccc5)N(C)C)[nH]4)cc3)cc2)c[nH]1)c1ccccc1` (relative stereo) [Example F7, rel-(1R)-2-((2S)-2-(4-(4′-(2-((2S)-1-((2R)-2-(dimethylamino)-2-phenylacetyl)octahydro-1H-indol-2-yl)-1H-imidazol-5-yl)-4-biphenylyl)-1H-imidazol-2-yl)-1-pyrrolidinyl)-N,N-dimethyl-2-oxo-1-phenylethanamine] and `CO[C@@H](C(=O)N1CCC[C@H]1c1ncc(-c2ccc(-c3ccc(-c4cnc([C@@H]5CCCN5C(=O)[C@@H](c5ccccc5F)N(C)C)[nH]4)cc3)cc2)[nH]1)c1ccccc1` [Example 107-32, (1R)-1-(2-fluorophenyl)-2-((2S)-2-(5-(4′-(2-((2S)-1-((2R)-2-methoxy-2-phenylacetyl)-2-pyrrolidinyl)-1H-imidazol-5-yl)-4-biphenylyl)-1H-imidazol-2-yl)-1-pyrrolidinyl)-N,N-dimethyl-2-oxoethanamine] fall in the same range of EC50: 1 to 999 pM for the first, 1 to 999 pM for the second.

`COC(=O)N[C@@H](C(=O)N[C@@H](C)c1ncc(-c2ccc(-c3ccc(-c4cnc([C@@H]5CCCN5C(=O)[C@H](NC(=O)OC)c5ccccc5)[nH]4)cc3)nc2)[nH]1)c1ccccc1` [Example 152j-22, methyl ((1R)-2-((2S)-2-(5-(4-(5-(2-((1S)-1-(((2R)-2-((methoxycarbonyl)amino)-2-phenylacetyl)amino)ethyl)-1H-imidazol-5-yl)-2-pyridinyl)phenyl)-1H-imidazol-2-yl)-1-pyrrolidinyl)-2-oxo-1-phenylethyl)carbamate] and `COC(=O)N[C@@H](C(=O)N1CCC[C@H]1c1ncc(-c2ccc(-c3ccc(-c4cnc([C@@H]5CCCN5C(=O)[C@H](NC(=O)OC)c5ccccc5)[nH]4)cc3C)cc2)[nH]1)c1ccccc1` [Example 124, dimethyl ((2-methyl-4,4′-biphenyldiyl)bis(1H-imidazole-5,2-diyl(2S)-2,1-pyrrolidinediyl((1R)-2-oxo-1-phenyl-2,1-ethanediyl)))biscarbamate] fall in the same range of EC50: 1 to 999 pM for the first, 1 to 999 pM for the second.

First: CC(C)[C@H](O)C(=O)N1CCC[C@H]1c1ncc(-c2ccc(-c3ccc(-c4cnc([C@@H]5CCCN5C(=O)[C@@H](O)C(C)C)[nH]4)cc3)cc2)[nH]1 [LS4, (2S,2′S)-1,1′-(4,4′-biphenyldiylbis(1H-imidazole-5,2-diyl(2S)-2,1-pyrrolidinediyl))bis(3-methyl-1-oxo-2-butanol)]
Second: COC(=O)N[C@@H](C(=O)N1CCC[C@H]1c1ncc(-c2ccc(-c3ccc(-c4cnc([C@@H]5CCCN5C(=O)CC5CC5)[nH]4)cc3)cc2)[nH]1)c1ccccc1 [Example 34, methyl ((1R)-2-((2S)-2-(5-(4′-(2-((2S)-1-(cyclopropylacetyl)-2-pyrrolidinyl)-1H-imidazol-5-yl)-4-biphenylyl)-1H-imidazol-2-yl)-1-pyrrolidinyl)-2-oxo-1-phenylethyl)carbamate]
The EC50 of the first is higher: 1000 to 99000 pM for the first, 1 to 999 pM for the second.

`O=C([C@@H](c1ccccc1)N1CCCC1)N1CCC[C@H]1c1ncc(-c2ccc(-c3ccc(-c4cnc([C@@H]5CCCN5C(=O)[C@@H](c5ccccc5)N5CCCC5)[nH]4)cc3C(F)(F)F)cc2)[nH]1` [Example 131] and `COC(=O)N[C@@H](C(=O)N1CCC[C@H]1c1ncc(-c2ccc(-c3ccc(-c4cnc([C@@H]5CCCN5C(=O)C5CCOCC5)[nH]4)cc3)cc2)[nH]1)c1ccccc1` [Example 45, methyl ((1R)-2-oxo-1-phenyl-2-((2S)-2-(5-(4′-(2-((2S)-1-(tetrahydro-2H-pyran-4-ylcarbonyl)-2-pyrrolidinyl)-1H-imidazol-5-yl)-4-biphenylyl)-1H-imidazol-2-yl)-1-pyrrolidinyl)ethyl)carbamate] fall in the same range of EC50: 1 to 999 pM for the first, 1 to 999 pM for the second.

`COC(=O)N[C@@H](C)C(=O)N1[C@@H]2C[C@@H]2C[C@H]1c1ncc(-c2ccc(-c3ccc(-c4cnc([C@@H]5C[C@H]6C[C@H]6N5C(=O)[C@H](C)NC(=O)OC)[nH]4)cc3)cc2)[nH]1` [Example M132, methyl ((1S)-2-((1R,3S,5R)-3-(4-(4′-(2-((1R,3S,5R)-2-(N-(methoxycarbonyl)-L-alanyl)-2-azabicyclo[3.1.0]hex-3-yl)-1H-imidazol-4-yl)-4-biphenylyl)-1H-imidazol-2-yl)-2-azabicyclo[3.1.0]hex-2-yl)-1-methyl-2-oxoethyl)carbamate] and `COC(=O)N[C@@H](C(=O)N1CCC[C@H]1c1nc(-c2ccc(-c3ccc(-c4[nH]c([C@@H]5CCCN5C(=O)[C@H](NC(=O)OC)c5ccccc5)nc4C)cc3)cc2)c(C)[nH]1)c1ccccc1` [Example E5j, dimethyl (4,4′-biphenyldiylbis((4-methyl-1H-imidazole-5,2-diyl)(2S)-2,1-pyrrolidinediyl((1R)-2-oxo-1-phenyl-2,1-ethanediyl)))biscarbamate] fall in the same range of EC50: 1 to 999 pM for the first, 1 to 999 pM for the second.

`CCN(CC)[C@@H](C(=O)N1CCC[C@H]1c1ncc(-c2ccc(-c3ncc(-c4c[nH]c([C@@H]5CCCN5C(=O)[C@@H](NC(=O)OC)C(C)C)n4)cn3)cc2)[nH]1)c1ccccc1` [Example D76] showed an EC50 of 1 to 999 pM.
